{
  "source": "patent US20240043615A1",
  "about": "“AMINO ACID POLYMER-PLATINUM ANTICANCER DRUG CONJUGATES” (priority 2020, published 2024)",
  "key": {"[1]": {"tested_on": "A2780 cisplatin-resistant cells (A2780-Cis)", "assay": "Cytotoxicity in cisplatin-resistant A2780 cells", "format": "cell-based, human", "conditions": "different concentrations of Pt, 30 min", "experimental": "(§1) A2780 cisplatin-resistant cells (A2780-Cis) and multiple drug resistant MDA-MB-231 cells (MDA-MB-231/MDR) were employed as models of drug resistant cells. 5×10^3 A2780-Cis or MDA-MB-231/MDR cells/well were seeded in a 96-well plate and cultured overnight. […] The results of this study are found in FIGS. 8A and 8B."}, "[2]": {"tested_on": "multiple drug resistant MDA-MB-231 cells (MDA-MB-231/MDR)", "assay": "Cytotoxicity in multiple drug resistant MDA-MB-231 cells", "format": "cell-based, human", "conditions": "different concentrations of Pt, 30 min", "experimental": "as §1"}, "CT26 tumor [3]": {"tested_on": "CT26 tumor", "assay": "Anti-tumor efficacy, CT26 tumor-bearing mice", "format": "in vivo", "conditions": "i.v."}, "[4]": {"tested_on": "A2780 human ovarian cancer cells", "assay": "Cytotoxicity in A2780 cells", "format": "cell-based", "conditions": "varying platinum concentration, 30 min", "experimental": "(§2) CT26, A2780 or MDA-MB-231 cells were seeded in a 96-well plate and cultured overnight."}, "[5]": {"assay": "Spleen toxicity evaluation in mice", "conditions": "mice after treatment"}, "A2780 tumor": {"tested_on": "A2780 tumor", "assay": "Anti-tumor efficacy, A2780 tumor-bearing mice", "format": "in vivo", "conditions": "i.v."}, "CT26 tumor [6]": {"tested_on": "CT26 tumor", "conditions": "CT26-tumor bearing mice, i.v., same dosage of oxaliplatin and P(G-A)-Asp-Pt"}, "[7]": {"assay": "Body weight change in mice", "conditions": "single 8 mg (Pt)/kg injection"}, "CT26 cells [8]": {"tested_on": "CT26 cells", "assay": "LysoTracker flow cytometry (lysosomal rupture)", "format": "cell-based, mouse", "conditions": "treatment 1 h; LysoTracker deep red 100 nM 40 min", "protocol": "CT26 cells were seeded in a 6-well plate and cultured overnight. […] Cells were then stained with LysoTracker deep red (100 nM) for 40 min. Cells were analyzed by flow cytometry."}, "[9]": {"assay": "Plasma pharmacokinetics in tumor-free mice (Pt by ICP-OES)", "conditions": "4 mg (Pt)/kg Pt-equivalent dosage", "protocol": "The dosage was calculated based on Pt. Plasma samples were collected at different time points. Pt content was measured by ICP-OES."}, "[10]": {"tested_on": "A2780 cisplatin-resistant tumor", "conditions": "i.v.; control 5% glucose"}, "CT26 cells [11]": {"tested_on": "CT26 cells", "assay": "Annexin-V/propidium iodide flow cytometry (apoptosis/necrosis)", "format": "cell-based, mouse", "conditions": "15 μg (Pt)/mL, different times", "protocol": "CT26 cells were seeded in a 6-well plate and cultured overnight. […] Apoptosis: Annexin V^+ PI^−, Necrosis: PI^+."}, "CT26 cells [12]": {"tested_on": "CT26 cells", "conditions": "for cell viability of CT26 cells with respect to incubation time: 25 μg Pt/mL, different time points, CCK8; for cell viability of CT26 cells: varying platinum concentration, 30 min", "experimental": "5×10^3 CT26 cells/well were seeded in a 96-well plate and cultured overnight. […] Cell viability was detected by CCK8 assay. The concentration of each of the platinum derivatives was calculated based on platinum concentration.\nas §2\nThe concentration of each of the platinum derivatives was calculated based on platinum concentration."}, "[13]": {"tested_on": "MDA-MB-231 human breast cancer cells", "assay": "Cytotoxicity in MDA-MB-231 cells", "format": "cell-based", "conditions": "varying platinum concentration, 30 min", "experimental": "as §2"}, "CT26 cells [14]": {"tested_on": "CT26 cells", "conditions": "short-time treatment"}, "CT26 cells [15]": {"tested_on": "CT26 cells", "conditions": "dynasore, chlorpromazine, genistein, cytochalasin D 40 min, then 25 μg (Pt)/mL for 30 min"}, "[16]": {"conditions": "same Pt dosage of oxaliplatin and P(G-A)-Asp-Pt, control 5% glucose"}},
  "note": "“Also recorded” adds a separate entry of the source.",
  "data": [
    {"molecule": "N.N.[Cl][Pt][Cl]", "note": "[cisplatin]", "values": [
      {"measurement": "cell viability of A2780-Cis cells", "setting": "[1]", "result": "little effect"},
      {"measurement": "cell viability of MDA-MB-231/MDR cells", "setting": "[2]", "result": "little effect"}
    ]},
    {"molecule": "O=C1[O][Pt]2([NH][C@@H]3CCCC[C@H]3[NH]2)[O]C1=O", "note": "[oxaliplatin, reference compound]", "values": [
      {"measurement": "CT26 tumor growth", "setting": "CT26 tumor [3]; [16]", "result": "partially slowed CT26 and A2780 tumor growth"},
      {"measurement": "cell viability of A2780 cells", "setting": "[4]", "result": "little effect"},
      {"measurement": "spleen appearance and weight", "setting": "[5]", "result": "dramatically shrunken with decreased weight"},
      {"measurement": "A2780 tumor growth", "setting": "A2780 tumor; [16]", "result": "partially slowed CT26 and A2780 tumor growth"},
      {"measurement": "Pt concentration in tumors versus time", "setting": "CT26 tumor [6]", "result": "rapidly dropped over time"},
      {"measurement": "body weight decrease", "setting": "[7]", "result": "more than 15%"},
      {"measurement": "LysoTracker signal (MFI) in CT26 cells", "setting": "CT26 cells [8]", "result": "little effect"},
      {"measurement": "Pt concentration in plasma versus time (circulation time)", "setting": "[9]", "result": "quickly cleared from plasma"},
      {"measurement": "A2780-Cis tumor growth", "setting": "[10]", "result": "partial anti-tumor efficacy on A2780-Cis tumors"},
      {"measurement": "apoptosis (Annexin V+ PI−) of CT26 cells", "setting": "CT26 cells [11]", "result": "induced cell apoptosis gradually from 0.5 h to 18 h"},
      {"measurement": "cell viability of A2780-Cis cells", "setting": "[1]", "result": "little effect"},
      {"measurement": "cell viability of CT26 cells with respect to incubation time", "setting": "CT26 cells [12]", "result": "little effect within that time interval"},
      {"measurement": "cell viability of CT26 cells", "setting": "CT26 cells [12]", "result": "little effect"},
      {"measurement": "cell viability of MDA-MB-231/MDR cells", "setting": "[2]", "result": "little effect"},
      {"measurement": "cell viability of MDA-MB-231 cells", "setting": "[13]", "result": "little effect"}
    ]},
    {"molecule": "Poly L-Glutamic and poly L-Aspartic acid (Glu:Asp = 7:3)-L-Aspartic-Platinum [P(G-A)-Asp-Pt]", "values": [
      {"measurement": "CT26 tumor growth", "setting": "CT26 tumor [3]; high dose", "result": "completely inhibited the growth"},
      {"measurement": "mice with complete response, CT26 tumors", "setting": "CT26 tumor [3]; high dose", "result": "over 40%"},
      {"measurement": "CT26 tumor growth", "setting": "CT26 tumor [3]; [16]", "result": "significantly inhibited tumor growth compared to the same oxaliplatin dosage"},
      {"measurement": "cell viability of A2780 cells", "setting": "[4]", "result": "able to kill these cancer cells"},
      {"measurement": "A2780 tumor growth", "setting": "A2780 tumor; high dose", "result": "completely inhibited the growth"},
      {"measurement": "mice with complete response, A2780 tumors", "setting": "A2780 tumor; high dose", "result": "over 40%"},
      {"measurement": "A2780 tumor growth", "setting": "A2780 tumor; [16]", "result": "significantly inhibited tumor growth compared to the same oxaliplatin dosage"},
      {"measurement": "LysoTracker signal (MFI) in CT26 cells", "setting": "CT26 cells [8]", "result": "reduced LysoTracker signal"},
      {"measurement": "morphological changes in CT26 cells", "setting": "CT26 cells [14]", "result": "Obvious cancer cell swelling and disrupted plasma membrane"},
      {"measurement": "A2780-Cis tumor growth", "setting": "[10]", "result": "significantly prohibited A2780-Cis tumor growth"},
      {"measurement": "necrosis (PI+) of CT26 cells", "setting": "CT26 cells [11]", "result": "triggered cancer cell necrosis quickly in 30 min"},
      {"measurement": "cell viability of A2780-Cis cells", "setting": "[1]", "result": "able to kill these drug resistant cells in 30 min"},
      {"measurement": "cell viability of CT26 cells with respect to incubation time", "setting": "CT26 cells [12]", "result": "induce rapid cell death in as short as 30 min"},
      {"measurement": "IC50 in CT26 cells in different incubation times", "setting": "CT26 cells [12]; 24 and 48 h, compared with oxaliplatin", "result": "lower IC50"},
      {"measurement": "cell viability of CT26 cells", "setting": "CT26 cells [12]", "result": "able to kill these cancer cells; also recorded: best cytotoxicity to CT26 cells compared to the other platinum derivatives tested; also recorded: better efficacy that P(G-A)-Glu-Pt and P(G-A)-D-Asp-Pt"},
      {"measurement": "viability of CT26 cells pre-treated with endocytosis/micropinocytosis inhibitors", "setting": "CT26 cells [15]", "result": "partially restore cell viability"},
      {"measurement": "cell viability of MDA-MB-231/MDR cells", "setting": "[2]", "result": "able to kill these drug resistant cells in 30 min"},
      {"measurement": "cell viability of MDA-MB-231 cells", "setting": "[13]", "result": "able to kill these cancer cells"}
    ]},
    {"molecule": "Poly L-Glutamic and poly L-Aspartic acid (Glu:Asp = 7:3)-Platinum [P(G-A)-Pt]", "values": [
      {"measurement": "cell viability of CT26 cells", "setting": "CT26 cells [12]", "result": "best cytotoxicity to CT26 cells compared to the other platinum derivatives tested"}
    ]}
  ]
}
